pKi: −log10 of the molar value.

T1 sequence (Q9H3N8 whole entry): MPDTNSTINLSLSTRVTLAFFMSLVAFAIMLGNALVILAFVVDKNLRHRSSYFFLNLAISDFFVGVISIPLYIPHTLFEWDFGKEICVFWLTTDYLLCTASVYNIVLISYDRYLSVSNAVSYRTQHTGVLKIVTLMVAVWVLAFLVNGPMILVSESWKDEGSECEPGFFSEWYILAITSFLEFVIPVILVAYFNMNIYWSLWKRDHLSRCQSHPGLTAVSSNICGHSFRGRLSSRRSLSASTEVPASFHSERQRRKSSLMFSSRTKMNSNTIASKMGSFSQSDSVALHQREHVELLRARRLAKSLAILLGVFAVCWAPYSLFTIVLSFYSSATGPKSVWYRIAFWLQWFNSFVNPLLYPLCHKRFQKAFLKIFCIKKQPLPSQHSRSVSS

The assay has as its target T1, histamine H4 receptor (Homo sapiens, UniProt Q9H3N8).
T1 construct: expressed in transfected cells; host or cells: CHO cells (membranes)
As to the kind of experiment: H4 binding ([3H]-Histamine competition binding on CHO cell membranes). As to conditions: [3H]-Histamine 3 nM, membranes of CHO cells expressing the histamine H4 receptor; Ki calculated from IC50 by Cheng-Prussoff. As to the method:
Cell pellets from CHO cells expressing the histamine H4 receptor were homogenised in ice-cold 50 mM Tris-HCl/0.5 mM CaCl2 buffer containing a protease inhibitor cocktail (Roche®, United Kingdom) using a ground glass homogeniser. Homogenates were centrifuged at 48000 g for 30 min at 4° C. The membrane pellet was resuspended in fresh buffer and the centrifugation step was repeated as described above. The membrane pellet was resuspended in 50 mM Tris-HCl in the same volume as the original cell pellet.
The reaction was terminated by rapid filtration through 0.5% polyethylenimine-soaked Unifilter GF/B plates (Packard) followed by three washes with 1 ml ice-cold 50 mM Tris-HCl. Filters were dried for 45 min at 45° C. and bound radiolabel was determined using scintillation counting techniques. Non-specific binding was defined with 5 μM clobenpropit.
Take `CN1C[C@@H]2CN(C(=O)c3cc4cccc(F)c4[nH]3)C[C@@H]2C1` [Example 22, 7-Fluoro-2-{[(3aR,6aS)-5-methylhexahydropyrrolo[3,4-c]pyrrol-2(1H)-yl]carbonyl}-1H-indole]: the pKi (in general, −log10 of the Ki, conventionally taken in molar units) is 7.70. On to `Cc1ccc2[nH]c(C(=O)N3C[C@H]4CN(C)C[C@H]4C3)cc2c1` [Example 17, 5-Methyl-2-{[(3aR,6aS)-5-methylhexahydropyrrolo[3,4-c]pyrrol-2(1H)-yl]carbonyl}-1H-indole], for which the pKi is 7.08. The value for `CN1C[C@@H]2CN(C(=O)c3nc4cc(F)ccc4[nH]3)C[C@@H]2C1` [Example 3, 5-Fluoro-2-{[(3aR,6aS)-5-methylhexahydropyrrolo[3,4-c]pyrrol-2(1H)-yl]carbonyl}-1H-benzimidazole] was 7.09; that for `CN1C[C@@H]2CN(C(=O)c3cc4cc(F)ccc4[nH]3)C[C@@H]2C1` [Example 16, 5-Fluoro-2-{[(3aR,6aS)-5-methylhexahydropyrrolo[3,4-c]pyrrol-2(1H)-yl]carbonyl}-1H-indole] was 7.70.

As for `Cc1c(F)ccc2nc(C(=N)N3C[C@H]4CN(C)C[C@H]4C3)[nH]c12` [Example 64, 1-(6-Fluoro-7-methyl-1H-benzimidazol-2-yl)-1-[(3aR, 6aS)-5-methylhexahydropyrrolo[3,4-c]pyrrol-2(1H)-yl]methanimine], the pKi is 8.40. The value for `CN1C[C@@H]2CN(C(=N)c3nc4cc(Cl)ccc4[nH]3)C[C@@H]2C1` [Example 68, 1-(5-Chloro-1H-benzimidazol-2-yl)-1-[(3aR, 6aS)-5-methylhexahydropyrrolo[3,4-c]pyrrol-2(1H)-yl]methanimine] was 7.59; that for `CN1C[C@@H]2CN(C(=N)c3nc4cccc(F)c4[nH]3)C[C@@H]2C1` [Example 66, 1-(7-Fluoro-1H-benzimidazol-2-yl)-1-[(3aR, 6aS)-5-methylhexahydropyrrolo[3,4-c]pyrrol-2(1H)-yl]methanimine] was 7.62; that for `CN1C[C@@H]2CN(C(=O)c3cc4cc(Br)ccc4[nH]3)C[C@@H]2C1` [Example 21, 5-Bromo-2-{[(3aR,6aS)-5-methylhexahydropyrrolo[3,4-c]pyrrol-2(1H)-yl]carbonyl}-1H-indole] was 7.37. The value for `CN1C[C@@H]2CN(C(=O)c3nc4c(F)c(F)c(F)cc4[nH]3)C[C@@H]2C1` [Example 58, 4,5,6-Trifluoro-2-{[(3aR,6aS)-5-methylhexahydropyrrolo [3,4-c]pyrrol-2(1H)-yl]carbonyl}-1H-benzimidazole] was 7.00. For `CN1C[C@@H]2CN(C(=N)c3nc4c(F)c(F)ccc4[nH]3)C[C@@H]2C1` [Example 61, 1-(4,5-Difluoro-1H-benzimidazol-2-yl)-1-[(3aR, 6aS)-5-methylhexahydropyrrolo[3,4-c]pyrrol-2(1H)-yl]methanimine], the pKi was 7.62. The value for `CN1C[C@@H]2CN(C(=N)c3nc4cc(F)cc(F)c4[nH]3)C[C@@H]2C1` [Example 63, 1-(4,6-Difluoro-1H-benzimidazol-2-yl)-1-[(3aR, 6aS)-5-methylhexahydropyrrolo[3,4-c]pyrrol-2(1H)-yl]methanimine] was 7.33; that for `CN1C[C@@H]2CN(C(=O)c3cc4cc(Cl)ccc4[nH]3)C[C@@H]2C1` [Example 7, 5-Chloro-2-{[(3aR,6aS)-5-methylhexahydropyrrolo[3,4-c]pyrrol-2(1H)-yl]carbonyl}-1H-indole] was 7.80.

On to `Cc1c(Cl)ccc2[nH]c(C(=O)N3C[C@H]4CN(C)C[C@H]4C3)nc12` [Example 48, 5-Chloro-4-methyl-2-{[(3aR,6aS)-5-methylhexahydropyrrolo[3,4-c]pyrrol-2(1H)-yl]carbonyl}-1H-benzimidazole], for which the pKi was 7.04. Regarding `Cc1c(F)ccc2nc(C(=O)N3C[C@H]4CN(C)C[C@H]4C3)[nH]c12` [Example 41, 5-fluoro-4-methyl-2-{[(3aR,6aS)-5-methylhexahydropyrrolo [3,4-c]pyrrol-2(1H)-yl]carbonyl}-1H-benzimidazole], the pKi is 7.28.

As for `Cc1cccc2nc(C(=N)N3C[C@H]4CN(C)C[C@H]4C3)[nH]c12` [Example 62, 1-(4-Methyl-1H-benzimidazol-2-yl)-1-[(3aR, 6aS)-5-methylhexahydropyrrolo[3,4-c]pyrrol-2(1H)-yl]methanimine], the pKi was 8.15. The value for `Cc1c(Cl)ccc2nc(C(=N)N3C[C@H]4CN(C)C[C@H]4C3)[nH]c12` [Example 65, 1-(6-Chloro-7-methyl-1H-benzimidazol-2-yl)-1-[(3aR, 6aS)-5-methylhexahydropyrrolo[3,4-c]pyrrol-2(1H)-yl]methanimine] was 7.92. As for `Cc1cccc2nc(C(=O)N3C[C@H]4CN(C)C[C@H]4C3)[nH]c12` [Example 26, 7-Methyl-2-{[(3aR,6aS)-5-methylhexahydropyrrolo[3,4-c]pyrrol-2(1H)-yl]carbonyl}-1H-benzimidazole], the pKi was 6.96.

Regarding `CN1C[C@@H]2CN(C(=N)c3nc4cc(F)ccc4[nH]3)C[C@@H]2C1` [Example 60, 1-(5-Fluoro-1H-benzimidazol-2-yl)-1-[(3aR,6aS)-5-methylhexahydropyrrolo[3,4-c]pyrrol-2(1H)-yl]methanimine], the pKi is 8.22. With `CN1C[C@@H]2CN(C(=O)c3nc4cc(F)c(F)cc4[nH]3)C[C@@H]2C1` [Example 27, 5,6-Difluoro-2-{[(3aR,6aS)-5-methylhexahydropyrrolo[3,4-c]pyrrol-2(1H)-yl]carbonyl}-1H-benzimidazole], the pKi was 6.93. In the case of `CN1C[C@@H]2CN(C(=O)c3nc4ccc(F)c(F)c4[nH]3)C[C@@H]2C1` [Example 25, 6,7-Difluoro-2-{[(3aR,6aS)-5-methylhexahydropyrrolo[3,4-c]pyrrol-2(1H)-yl]carbonyl}-1H-benzimidazole], the pKi is 7.17. Turning to `CN1C[C@@H]2CN(C(=O)c3nc4ccccc4[nH]3)C[C@@H]2C1` [Example 1, 2-{[(3aR,6aS)5-Methylhexahydropyrrolo[3,4-c]pyrrol-2(1H)-yl]carbonyl}-1H-benzimidazole], the pKi was 7.04. For the compound `CN1C[C@@H]2CN(C(=N)c3nc4cc(F)c(F)cc4[nH]3)C[C@@H]2C1` [Example 59, 1-(5,6-Difluoro-1H-benzimidazol-2-yl)-1-[(3aR,6aS)-5-methylhexahydropyrrolo[3,4-c]pyrrol-2(1H)-yl]methanimine], the pKi was 8.15.

For `CN1C[C@@H]2CN(C(=O)c3cc4cc(O)ccc4[nH]3)C[C@@H]2C1` [Example 15, 2-{[(3aR,6aS)-5-Methylhexahydropyrrolo[3,4-c]pyrrol-2(1H)-yl]carbonyl}-1H-indol-5-ol], the pKi was 7.55. The value for `CN1C[C@@H]2CN(C(=N)c3nc4c(F)c(F)c(F)cc4[nH]3)C[C@@H]2C1` [Example 67, 1-[(3aR, 6aS)-5-Methylhexahydropyrrolo[3,4-c]pyrrol-2(1H)-yl]-1-(4,5,6-trifluoro-1H-benzimidazol-2-yl)methanimine] was 7.22.

These data come from patent US20060111416A1, “Octahydropyrrolo[3,4-C]pyrrole derivatives” (priority 2004, published 2006).
